# “Also recorded” adds a separate entry of the source.
# Legend:
# [1] = test system: tumor bearing mice; assay: Prime-boost OVA vaccination of tumor bearing mice, SIINFEKL specific CD8+ T cell expansion by flow cytometry; type: in vivo, mouse; settings: tumor bearing mice vaccinated with OVA+Poly:ICLC +/- inhibitor, whole blood
# Description: FIGS. 3A-3B. FIG. 3A) Vaccination scheme. FIG. 3B) Tumor bearing or non-tumor bearing mice were vaccinated on day 2 and 8 with an agonist (4012) or CD200 inhibitor (6059) only, and on days 3-6 and […] with OVA+Poly:ICLC +/− the agonist (4012) or CD200 inhibitor (6059). B) Mice were bled on day 10, whole blood was stained with an anti-CD8 and SIINFEKL specific detramer (SEQ ID NO: 18), lysed and analyzed by flow cytometry.
# (§1) FIGS. 12A-12C. CD200 inhibitor reverses the suppressive effects of the tumor environment. Tumor and non-tumor bearing mice were vaccinated with OVA+Poly:ICLC +/− the CD200 inhibitor 6059 and analyzed for FIG. 12A) SIINFEKL/Kb^+CD8^+ T cell expansion (“SIINFEKL” disclosed as SEQ ID NO: 18). FIG. 12B) Lymphocytes were harvested and stimulated with SIINFEKL peptide (SEQ ID NO: 18). Supernatants were analyzed for TNFα and IFNγ secretion. FIG. 12C) The CD200 inhibitor 6059 was added to OVA+exosomes. Error bars indicate +/−SEM (n=4/group; *P<0.05; by t-test).
# (§2) These experiments support the hypothesis that exosomes express the CD200 protein thereby inhibiting the ability to prime a T cell response in the draining lymph nodes of glioma bearing mice. Other CD200 inhibitors were similarly evaluated (FIGS. 3A-3B, 9A-9B and 24A-24B).
# [2] = test system: tumor bearing mice; assay: Recall response: lymphocytes of vaccinated tumor bearing mice restimulated with OVA/SIINFEKL, cytokine release; type: in vivo, mouse; settings: lymphocytes from cervical lymph nodes of vaccinated tumor bearing mice restimulated, supernatant after 48 hrs
# From the text: FIGS. 4A-4B. Tumor bearing or non-tumor bearing mice were vaccinated on day 2 and 8 with an agonist or CD200 inhibitor only, and on days 3-6 and 10 with OVA+Poly:ICLC +/− the CD200 inhibitor 6059. On day 10, were harvested and stimulated with OVA protein to measure a recall response via cytokine release. FIG. 4A) TNF alpha (PG/ML) levels from tumor bearing mice. FIG. 4B) IFN gamma (PG/ML) levels in tumor bearing mice.
# as §1, §2
# [3] = test system: glioma-derived exosomes; assay: Vaccination of non-tumor bearing mice with OVA + glioma-derived exosomes +/- inhibitor; type: in vivo, mouse; settings: OVA+glioma-derived exosomes+antagonist
# Description: as §1, §2
# [4] = test system: GL261 tumor bearing mice; assay: GL261 glioma model, inhibitor inoculated into the tumor site in the brain, then tumor lysate + inhibitor; type: in vivo, mouse; settings: 10 μg inhibitor in the brain at tumor coordinates on day 2, then weekly tumor lysate + inhibitor
# Description: Tumor-bearing mice were inoculated in the brain with 10 μg of the inhibitor 6059 at the same coordinates at which the tumor was injected two days previously. This was followed by weekly injections of tumor lysate+inhibitor (FIGS. 5A-5B).
# [5] = test system: GL261 tumor bearing mice; assay: GL261 glioma model, vaccination with tumor lysate +/- CD200 inhibitor, tumor growth and survival
# Description: FIG. 5B) Mice were imaged weekly for tumor growth. The following groups were studied: saline (1), tumor lysate (2), and tumor lysate+CD200 inhibitor (6059) (3). FIG. 5C) Percent survival post inoculation for saline (1), tumor lysate (2), and tumor lysate+CD200 inhibitor (3) groups.
# In vivo survival study. […] All vaccinations were administered in the back of the neck in tumor bearing mice.
# [6] = test system: Human immature dendritic cells; assay: Human immature dendritic cells pulsed with P1 peptide or alanine-substituted versions, cytokine production; type: cell-based; settings: human CD11b-derived immature dendritic cells (GM-CSF, IL4), supernatants
# Description: FIGS. 13A-13B. Human CD11b cells were isolated. Purified CD11b cells were differentiated to immature dendritic cells using GM-CSF and IL4. Cells were pulsed with P1, P2, P3 and P4 CD200 inhibitors (see Table 2). Supernatants were analyzed for FIG. 13A) cytokine or FIG. 13B) chemokine production.
# FIG. 16. Human CD11b cells were isolated and the purified CD11b cells were differentiated to immature dendritic cells using GM-CSF and IL4. Cells were pulsed with human P1 peptide, or a mutated version thereof comprising an alanine substitution (denoted by P1 and the amino acid substitution and position; e.g., P1A1, P1A2, P1A3, P1A4, P1A5, P1A6, etc.) (see, Table 2). Supernatants were analyzed for cytokine production.
# [7] = test system: splenocytes + OT-1 T cells; assay: Splenocytes pulsed with OVA + inhibitor, OT-1 T cells added, cytokine production by flow cytometric bead array; type: cell-based, mouse; settings: splenocytes pulsed 24 hours with OVA+inhibitor, 48 hours with OT-1 T cells
# Description: FIGS. 11A-11B. Splenocytes were pulsed with OVA+an inhibitor peptide and incubated for 24 h. Following incubation, cells were washed, purified OT1 were added to wells and incubated for an additional 48 hours then analyzed for FIG. 11A) TNFa and IL-6 production; and FIG. 11B) IL-2 and IL-17 production. Error bars indicate +/−SEM (n=4/group; *P<0.05; ** P<0.01).
# We hypothesize that the two different human CD200 inhibitor peptides (peptide 1=hP1 & peptide 2=hP2, table 2) are hitting different activation receptors on dendritic cells, although only one has been identified. […] We want to generate the immune response most beneficial for our patients. These conclusions were supported by experiments where splenocytes were pulsed with OVA+selected CD200 inhibitors (6061, 6069, 4004, 4006, 4013) for 24 hours. The splenocytes were then washed and cultured for 48 hours with the addition of OT-1 T cells. The cultures were then assessed for cytokine production using a flow cytometric bead array.
# [8] = test system: PPIA; assay: PPIA production in monocytes with CD200 inhibitor; type: cell-based; settings: peptide binds the CD200 activating receptor
# From the text: FIGS. 18A-18E. Experimental Model. CD200 is solubilized from the tumor or endothelial interacting on its receptor (CD200R). This CD200/CD200R interaction induces the upregulation of PPIA through the MYC pathway decreasing TNF alpha and IL2 production needed for an immune response (FIG. 18A).
# These antagonist have been reported to reverse the differentiation to as myeloid-derived suppressor cells following interaction with soluble CD200 (FIG. 18C) (Moertel et al., J Immunother Can; 2(1):46) and in vivo (FIG. 23). The mechanism of […] protein inhibition has been determined through the upregulation of an immunosuppressive protein PPIA (FIGS. 18A-18E) which is inhabited with the use of the CD200 inhibitor P1A12.
sequence,measurement,setting,value
NTIGDGGCY [Inhibitor 6059],SIINFEKL specific CD8+ T cell expansion: effect on tumor induced suppression,[1],reversed tumor induced suppression; also recorded: reversed the suppressive effects of the tumor microenvironment; also recorded: reversed the suppressive effects in tumor-bearing mice
same,"Recall response via cytokine release (TNF alpha, IFN gamma): effect on tumor induced suppression",[2],modulate/reverse glioma-induced suppression; also recorded: reversed the suppressive effects of the tumor microenvironment
same,Suppression induced by exosomes,[3],partially reversed the suppression induced by exosomes
same,Tumor growth after inhibitor into the tumor site in the CNS,[4],Tumor growth was delayed
same,Survival benefit,[5]; GL261 mice vaccinated weekly with tumor lysates + inhibitor vs saline or tumor lysates,increased survival benefit
same,Tumor growth,"[5]; GL261 mice, tumor lysate (65 μg) + inhibitor (50 μg), imaged weekly, vs saline or tumor lysate",slowed tumor growth
same,Enhancement of survival,"[5]; GL261 mice, tumor lysate (65 μg) + inhibitor (50 μg), vs saline or tumor lysate",30%
SQKVSATACLTLY [hP1A6],Cytokine production (response) vs human P1 peptide,[6],enhanced TNF-α and IL-β production
same,Cytokine production (response) vs human P1 peptide,[6]; listed as P1A6,significantly enhanced response
"SQKVSGTACLTLY [Inhibitor 4006, P3 in b288]","Cytokine profile (TNFa, IL-6, IL-2, IL-17)",[7],different cytokine profiles
TASLRCSLKTSQE [Inhibitor 4004],"Cytokine profile (TNFa, IL-6, IL-2, IL-17)",[7],different cytokine profiles
"VTWQKKKAVSPAN [Inhibitor P1A12, P1 in b288]",Production of PPIA,[8],inhibits the production of PPIA

# Reference: US11666645B2, “CD200 inhibitors and methods of use thereof” (REGENTS OF THE UNIVERSITY OF MINNESOTA, priority 2015, dated 2023)
